# Assay results published in patent publication US10155768B2, “Fused pyrimidine compound or salt thereof” (TAIHO PHARMACEUTICAL CO., LTD., priority 2016, dated 2018).
# Test: Evaluation of stability in liver microsome
# Conditions: mouse liver microsome 0.25 mg/mL, 1 μM test compound, 37° C. for 30 minutes
row,Compound,Remaining (%)
1,"COCc1ccc(NC(=O)c2c(C#Cc3cnc4[nH]ccc4c3)n(C3(C)CC3)c3ncnc(N)c23)cc1 [Example 128, 6-((1H-pyrrolo[2,3-b]pyridine-5-yl)ethynyl)-4-amino-N-(4-(methoxymethyl)phenyl)-7-(1-methylcyclopropyl)-7H-pyrrolo[2,3-d]pyrimidine-5-carboxamide]",82%
2,"COCc1ccc(NC(=O)c2c(C#Cc3c(C)noc3C)n(C3(C)CC3)c3ncnc(N)c23)cc1 [Example 184, 4-amino-6-((3,5-dimethylisoxazol-4-yl)ethynyl)-N-(4-(methoxymethyl)phenyl)-7-(1-methylcyclopropyl)-7H-pyrrolo[2,3-d]pyrimidine-5-carboxamide]",58%
3,"CCC(O)CC#Cc1c(C(=O)Nc2ccc(COC)cc2)c2c(N)ncnc2n1C1(C)CC1 (stereo not drawn) [Example 157, 4-amino-6-(4-hydroxyhex-1-yn-1-yl)-N-(4-(methoxymethyl)phenyl)-7-(1-methylcyclopropyl)-7H-pyrrolo[2,3-d]pyrimidine-5-carboxamide]",59%
4,"COCc1ccc(NC(=O)c2c(C#CC3(O)CCOCC3)n(C3(C)CC3)c3ncnc(N)c23)cc1 [Example 185, 4-amino-6-((4-hydroxytetrahydro-2H-pyran4-yl)ethynyl)-N-(4-(methoxymethyl)phenyl)-7-(1-methylcyclopropyl)-7H-pyrrolo[2,3-d]pyrimidine-5-carboxamide]",80%
5,"COCc1ccc(NC(=O)c2c(/C=C/CO)n(C3(C)CC3)c3ncnc(N)c23)cc1 [Example 109, (E)-4-amino-6-(3-hydroxyprop-1-en-1-yl)-N-(4-(methoxymethyl)phenyl)-7-(1-methylcyclopropyl)-7H-pyrrolo[2,3-d]pyrimidine-5-carboxamide]",68%
6,"COCc1ccc(NC(=O)c2c(C#Cc3ccc4c(c3)NCCO4)n(C3(C)CC3)c3ncnc(N)c23)cc1 [Example 158, 4-amino-6-((3,4-dihydro-2H-benzo[b][1,4]oxazin-6-yl)ethynyl)-N-(4-(methoxymethyl)phenyl)-7-(1-methylcyclopropyl)-7H-pyrrolo[2,3-d]pyrimidine-5-carboxamide]",85%

# Further lines, results first:
row,Remaining (%),Compound
1,67%,"COCc1ccc(NC(=O)c2cn(C3(C4CC4)CC3)c3ncnc(N)c23)cc1 [Example 49, 7-{[1,1-bi(cyclopropane)]-1-yl}-4-amino-N-(4-(methoxymethyl)phenyl)-7H-pyrrolo[2,3-d]pyrimidine-5-carboxamide]"
2,70%,"COCc1ccc(NC(=O)c2c(SC)n(C3(C)CC3)c3ncnc(N)c23)cc1 [Example 133, 4-amino-N-(4-methoxymethyl)phenyl-7-(1-methylcyclopropyl)-6-(methylthio)-7H-pyrrolo[2,3-d]pyrimidine-5-carboxamide]"
3,61%,"COCc1ccc(NC(=O)c2c(C#Cc3cnn(C)c3C)n(C3(C)CC3)c3ncnc(N)c23)cc1 [Example 182, 4-amino-6-((1,5-dimethyl-1H-pyrazol-4-yl)ethynyl)-N-(4-(methoxymethyl)phenyl)-7-(1-methylcyclopropyl)-7H-pyrrolo[2,3-d]pyrimidine-5-carboxamide]"
4,86%,"COCc1ccc(NC(=O)c2c(OC)n(C3(C)CC3)c3ncnc(N)c23)cc1 [Example 57, 4-amino-6-methoxy-N-[4-(methoxymethyl)phenyl]-7-(1-methylcyclopropyl)-7H-pyrrolo[2,3-d]pyrimidine-5-carboxamide]"
5,77%,"COCc1ccc(NC(=O)c2c(C#CC3CCN(C)CC3)n(C3(C)CC3)c3ncnc(N)c23)cc1 [Example 183, 4-amino-N-(4-(methoxymethyl)phenyl)-7-(1-methylcyclopropyl)-6-((1-methylpiperidin-4-yl)ethynyl)-7H-pyrrolo[2,3-d]pyrimidine-5-carboxamide]"
6,64%,"COCc1ccc(NC(=O)c2c(C#Cc3ccc(N)nc3)n(C3(C)CC3)c3ncnc(N)c23)cc1 [Example 155, 4-amino-6-((6-aminopyridin-3-yl)ethynyl)-N-(4-(methoxymethyl)phenyl)-7-(1-methylcyclopropyl)-7H-pyrrolo[2,3-d]pyrimidine-5-carboxamide]"
